Data set [1] deals with bleeding time. In words: Bleeding time in vivo, tail cut. On the set-up: species or system ICR mice. To be noted: for BT (bleeding time): 6 animals/group, mean ± SE, saline 315.2 s. The method, then: The mice (both sexes, 18–22 g) were randomly divided into four groups. The samples were intravenously injected (10 or 20 mg/kg) in ICR mice (6 animals/group) once a day in four consecutive days. Fifteen minutes after the last administration (positive control after 2 h), the mice tail was marked with a tag in the distance of 3 mm to after peak, then cut in the mark. Then the tip of the tail was immersed in saline at 37 °C. Record the time from cutting the tip of the tail to stopping bleeding, the interval was called bleeding time (Kogushi et al. [2011]). Heparin was used as positive control, and 0.9 % saline as model control.

Data set [2] concerns whole blood clotting. Put plainly: Whole blood clotting time in vivo, capillary glass tube method. On the set-up: species or system mice. To be noted: for Effect on whole blood clotting time: TNGYT 10 and 20 mg/kg, heparin 20 mg/kg, versus control group, P < 0.01; for CT (clotting time): six per group, mean ± SE, saline 273.2 s. As to the method:
Whole blood clotting time (CT) in mice was measured by capillary glass tube method (Li et al. [2004]). Mice (18–22 g body weight) were divided into four groups (both sexes, six per group). Two groups were received intravenous injection of 20 and 10 mg/kg body weight of the purified peptide for four consecutive days. Other groups were received normal saline and 20 mg/kg body weight of heparin (the positive control), respectively. Fifteen minutes after the last administration (positive control after 2 h), blood samples were collected through the retro-orbital plexus with a glass capillary and kept on a slide to allow for clotting. Stirring the blood with a dry needle every 30 s until needle wire can provoke a fibrous protein, when is defined as clotting time.

The test system of data set [3] is normal citrated PPP (platelet poor plasma). In words: in vitro PT clotting assay. The data set is classed as biochemical, ICR mice. To be noted: sample diluted in PBS pH 8.34, mouse PPP, 3 min at 37 °C, triplicates, mean ± SE. As to the method:
(§1) Blood was drawn by Eyeball from ICR mice. The blood was separately centrifuged at 2,500×g for 10 min to obtain platelet poor plasma (PPP). For the in vitro aPTT assay, normal citrated PPP (50 μl) was incubated with sample solution (8, 6, 4, 2, 1 mg/ml, previously diluted in PBS, pH 8.34, 50 μl) and 100 μl aPTT reagent for 3 min at 37 °C. Clotting time was immediately recorded after the addition of 100 μl of 20 mM CaCl2. For the in vitro PT assay, normal citrated PPP (25 μl) was incubated with sample solution (8, 6, 4, 2, 1 mg/ml, previously diluted in PBS, pH 8.34, 25 μl) for 3 min at 37 °C. Clotting time was immediately recorded after the addition of 50 μl of PT reagent (Majdoub et al. [2009]). All coagulation assays were performed in triplicates. Heparin was used as a positive control, and PBS (pH 8.34) as model control. For ex vivo coagulation assays, samples were dissolved in saline and were intravenously injected (10 or 20 mg/kg) in ICR mice (6 animals/group). Five and 24 h after drug administration, blood was collected (drawn by eyeball), immediately centrifuged (3,000 rpm, 15 min), and the plasma was used to measure the aPTT and PT as previously described (Batista et al. [2010]).

For data set [4] the test system is unchanged. The data set is classed as biochemical, ICR mice. The conditions noted are these: for APTT: sample diluted in PBS pH 8.34, mouse PPP, 3 min at 37 °C, triplicates, mean ± SE. As to the method: as §1
The conditions of data set [5]: from S. subspinipes mutilans; ref Kong et al. [2013]; cited from earlier work. An excerpt: The centipede contains many bioactive components, including 5-hydroxytryptamine, histamine, lipids, polysaccharides, and various enzymes (e.g. proteinases and esterases) (Knysak et al. [1998]; Gomes et al. [1983]). They have been widely used as traditional folk medicine to treat thrombotic diseases in China (Pemberton [1999]) for several hundred years. […] Wu et al. ([2009]) found centipede acidic protein (CAP) signif ...

The target of data set [6] is T1, human FXa (Homo sapiens, UniProt P00742).
T1 construct: Purified human FXa; purchased HYPHEN BioMed (Neuvile sur Oise, France)
Put plainly: FXa inhibition assay, chromogenic substrate S-2222. Format: biochemical. An excerpt:
Sephadex G-50 was obtained from Pharmacia (Uppsala, Sweden). Purified human FXa and chromogenic substrate of FXa (S2222) were purchased from HYPHEN BioMed (Neuvile sur Oise, France). Mice of both sexes were from Qinglongshan animal center (Nanjing, Jiangsu Province, China). All the animal protocols were approved by the Animal Care and Use Committee at China Pharmaceutical University. All other chemicals and reagents were at analytical grade.
Chromogenic substrate method was used to measure the FXa-inhibiting activity. Inhibition was determined by FXa residual activity on the chromogenic substrate BIOPHEN CS-11 (S-2222) (22), which liberates the chromophoric group pNA (p-nitroaniline) (van Wijk and Smit [1984]). Different concentrations of the peptide (5–60 mg/ml) were incubated with FXa for 30 min at 37 °C in PBS (pH 8.34). The reaction was initiated by adding the substrate into the peptide solution (Ibrahima et al. [2001]). The absorbance at 405 nm was recorded every 0.5 min in 5 min. In A–t curve, the curve slope was considered as reaction rate (v).
Inhibition rate(%)=V0- Vi/V0×100%, V0 is the rate of PBS (pH 8.34, model control), and Vi is the rate of peptide.

Data set [7] has as its system plasma of treated mice (aPTT). In words: ex vivo aPTT assay. The conditions noted are these: for APTT: ex vivo, ICR mice, 6 animals/group, mean ± SE. The data set is classed as in vivo, ICR mice. The method, then: as §1
Data set [8] relates to plasma of treated mice (PT). In words: ex vivo PT assay. The data set is classed as in vivo, ICR mice. To be noted: for PT: ex vivo, ICR mice, 6 animals/group, mean ± SE. As to the method: as §1

Where “and” joins values, the source holds several entries; their conditions need not be identical. Identical values can stand only once. Like-named read-outs stand apart in the source and are kept apart here. Marks after values point to notes of the source that are not given here.

T1 sequence (P00742 235-488 limits assumed): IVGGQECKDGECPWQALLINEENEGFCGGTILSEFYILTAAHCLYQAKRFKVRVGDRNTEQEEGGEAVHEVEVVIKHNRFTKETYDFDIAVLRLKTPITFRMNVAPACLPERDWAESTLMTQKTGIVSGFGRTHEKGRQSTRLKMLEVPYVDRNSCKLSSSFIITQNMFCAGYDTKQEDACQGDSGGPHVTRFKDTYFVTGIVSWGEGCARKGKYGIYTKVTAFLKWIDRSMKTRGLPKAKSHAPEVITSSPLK
T1 sequence (P00742 41-179 partner limits assumed): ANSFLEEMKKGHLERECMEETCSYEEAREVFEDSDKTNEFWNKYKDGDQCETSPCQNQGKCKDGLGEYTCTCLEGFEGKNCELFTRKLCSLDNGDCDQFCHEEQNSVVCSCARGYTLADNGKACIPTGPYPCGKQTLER

With Heparin [reference compound], in data set [1] (positive control 20 mg/kg, 2 h after last administration), the “BT (bleeding time)” value came out at 804.3 ± 87.7 s. Besides, the “Effect on whole blood clotting time” value in data set [2] was “significantly prolong whole blood clotting time”. For the same substance, the “CT (clotting time)” value in data set [2] (positive control 20 mg/kg, 2 h after administration, mice) came to 718.8 ± 60.15 s. Besides, the PT in data set [3] (1 mg/ml) is reported as >60.0** s. Besides, in data set [4] (in vitro, 1 mg/ml), the APTT is reported as >60.0** s.
Turning to “Ser-Gln-Leu (SQL) [anti-thrombotic peptide isolated from S. subspinipes mutilans]”, in data set [5], the Anti-thrombotic activity entry was “anti-thrombotic”.
As for Thr-Asn-Gly-Tyr-Thr (TNGYT), the “Inhibition of FXa activity” value in data set [6] (60 mg/ml, 30 min at 37 °C, PBS pH 8.34, substrate S-2222, absorbance 405 nm) is 59.75%. Moreover, in data set [6] (versus Ac-AP-12, Amblyomin-X, Nymphal FXa inhibitor, AduNAP4), the “Inhibition rate of FXa relative to other protein/peptide FXa inhibitors” value is reported as “lower than FXa inhibitors mentioned above”. Besides, the “BT (bleeding time)” value in data set [1] (10 mg/kg i.v. once a day, four consecutive days, 15 min after last administration) is 447.5 ± 78.1 s; in data set [1] (20 mg/kg i.v. once a day, four consecutive days, 15 min after last administration), 549.7 ± 60.9 s. In addition, the “Effect on bleeding time” value in data set [1] (10 and 20 mg/kg, versus model control, P < 0.01) is reported as “significantly prolong the bleeding time”. For the same substance, the “Risk of bleeding relative to heparin” value in data set [1] (equal dose 20 mg/kg, inferred from bleeding time) is reported as “lower than that of heparin”. In addition, the “CT (clotting time)” value in data set [2] (10 mg/kg i.v., four consecutive days, 15 min after last administration, mice) is on record as 389.0 ± 35.74 s; in data set [2] (20 mg/kg i.v., four consecutive days, 15 min after last administration, mice), 463.0 ± 48.8 s. The “Effect on whole blood clotting time” value in data set [2] is “significantly prolong whole blood clotting time”. Moreover, in data set [2] (same dose of 20 mg/kg, i.v., mice), the “Effect in prolonging the clotting time compared to heparin” value is reported as “about 50%”. For the same substance, the PT in data set [3] (1 mg/ml) was 14.7 ± 0.6 s; in data set [3] (2 mg/ml), 15.3 ± 1.5 s; in data set [3] (4 mg/ml), 17.7 ± 0.6 s; in data set [3] (8 mg/ml, 0.9 % saline control 12.7 s) it was 23.3 s and 23.3 ± 1.5 s; in data set [8] (5 h after 10 mg/kg i.v., saline 15.7 s), 16.7 ± 0.6 s; in data set [8] (24 h after 10 mg/kg i.v., saline 17.7 s) it was 18.7 ± 1.5 s. This substance yielded a PT in data set [8] (24 h after 20 mg/kg i.v., saline 17.7 s) of 18.3 ± 0.6 s. For the same substance, the “Alteration of aPTT ex vivo” value in data set [7] (10 or 20 mg/kg i.v., 5 and 24 h, mice) was “increases in the aPTT were observed”. In addition, the APTT was 59.0 ± 2.0 s in data set [7] (5 h after 10 mg/kg i.v., saline 49.0 s); 65.7 ± 3.1 s in data set [7] (5 h after 20 mg/kg i.v., saline 49.0 s); 49.3 ± 1.5 s in data set [7] (24 h after 10 mg/kg i.v., saline 47.0 s); 51.3 ± 2.3 s in data set [7] (24 h after 20 mg/kg i.v., saline 47.0 s); 36.7 ± 1.5 s in data set [4] (in vitro, 1 mg/ml); 44.0 ± 2.0 s in data set [4] (in vitro, 2 mg/ml). Besides, the APTT in data set [4] (in vitro, 4 mg/ml) was 44.0 ± 1.0 s; in data set [4] (in vitro, 8 mg/ml, 0.9 % saline control 33.3 s) it was 57 s and 57.0 ± 2.0 s. Moreover, in data set [4] (aPTT and PT assays, data in Table 1 of Supplementary Data), the “Biological activity, natural vs synthesized peptide (aPTT and PT assays)” value is on record as “the same biological activity”. The “Potency relative to heparin, fold lower” value in data set [4] (in vitro assay, lower than heparin) is on record as “at least 8 -folded”. In addition, the “Action on aPTT and PT relative to heparin” value in data set [4] (in vitro, aPTT and PT, versus heparin (1 mg/ml)) was “lower than the positive control heparin”. For the same substance, in data set [8] (10 or 20 mg/kg i.v., mice), the “Alteration of PT ex vivo” value is on record as “no significant alterations were observed in the PT”.

The values above are taken from PMC3824214, “A Novel Factor Xa-Inhibiting Peptide from Centipedes Venom” (International Journal of Peptide Research and Therapeutics, 2013).
